Here are results for 1 compound from US20110300197A1, “FOOD PRODUCT” (Mars, Incorporation, priority 2008, published 2011).

Common to all, as to assay type: cell-based, dog
Assay [1] concerns biofilms representative of canine dental plaque. The experiment in a line: Canine plate biofilm assay (PBA): biomass quantification (crystal violet assay). Particulars: 48 hours, extracts at 500 μg/ml unless otherwise stated, OD595 vs no active control. As to the method:
(§1) The assay requires fresh supragingival canine dental plaque and saliva for inoculation. The inoculum consists of pooled dental plaque and unfiltered saliva sampled from a group of 14 dogs, varying in age, breed and oral health status.
(§2) The plaque and saliva were resuspended in artificial saliva to form the inoculum of approximately 15% plaque and 30% saliva.
(§3) The plate biofilm assay (PBA) utilises a 24 well plate format in which biofilms, representative of canine dental plaque, are grown on hydroxyapatite (HA) discs. Prior to being introduced to the 24 well assay plate, each HA disc is preconditioned for 2 hours in a solution of 50% filter sterilised canine saliva in artificial canine saliva. The preconditioning step stimulates the formation of a salivary pellicle on the HA disc surface. […] Each HA disc, with the exception of those being used for biomass quantification, is placed into 500 μl PBS and vortex mixed for 30 seconds to remove biofilm growth from the disc into solution. […] Biofilm-covered HA discs that are being used for biomass quantification are removed from the 24 well assay plate and used directly in the crystal violet assay.
The total amount of biofilm grown on the HA discs was quantified using the crystal violet staining method. Biomass was represented as being directly proportional to the OD reading at 595 nm (0D595) of the samples compared to controls. […]

Assay [2] relates to trypsin-like protease activity. The experiment in a line: Canine plate biofilm assay (PBA): trypsin-like protease activity (liquid BAPNA assay). Particulars: 48 hours, extracts at 500 μg/ml unless otherwise stated, vs no active control. As to the method:
as §1, §2, §3
Trypsin-like protease activity was measured using the liquid BAPNA assay, a colourimetric assay in which the amount of trypsin present in a sample is directly proportional to the intensity of the colour developed. […]

In a further assay the test system is Aerobes. The experiment in a line: Canine plate biofilm assay (PBA): bacterial viable counts, aerobes. Particulars: 48 hours, extracts at 500 μg/ml unless otherwise stated, vs no active control. As to the method:
as §1, §2
as §3, with “saliva.” for “saliva. The preconditioning step stimulates the formation of a salivary pellicle on the HA disc surface.”
(§4) Viable numbers of bacteria were quantified using Columbia blood agar plates supplemented with haemin and menadione. Aerobes were counted after incubation for 2 days and anaerobes, including black pigmenting colonies (BPC), were counted after incubation at appropriate conditions for 9 days. […]

The next assay concerns anaerobes. The experiment in a line: Canine plate biofilm assay (PBA): bacterial viable counts, anaerobes. Particulars: 48 hours, extracts at 500 μg/ml unless otherwise stated, vs no active control. As to the method:
as §1, §2
as §3, with “saliva.” for “saliva. The preconditioning step stimulates the formation of a salivary pellicle on the HA disc surface.”
as §4

Assay [3] relates to black pigmenting colonies (BPC). Kind of assay: Canine plate biofilm assay (PBA): bacterial viable counts, black pigmenting colonies. The settings on record: 48 hours, extracts at 500 μg/ml unless otherwise stated, vs no active control. As to the method:
as §1, §2
as §3, with “saliva.” for “saliva. The preconditioning step stimulates the formation of a salivary pellicle on the HA disc surface.”
as §4

Take `[H]/N=C(\N/C(=N/[H])NCCCCCCNC(=N)NC(=N)Nc1ccc(Cl)cc1)Nc1ccc(Cl)cc1` [Chlorhexidine, chlorhexidine]: in assay [1], the “Biomass (% reduction)” value was determined as 94.40%. Moreover, in assay [2], the “Protease (% reduction)” value was determined as 95.76%. In the assay with Aerobes, the “Aerobe (Log 10 reduction)” value amounted to 2.87 Log 10. Moreover, in the assay on anaerobes, the “Anaerobe (Log 10 reduction)” value turned out to be 2.48 Log 10. Moreover, the “BPC (Log 10 reduction)” value in assay [3] is on record as 2.74 Log 10.
